From US20130116287A1 (priority 2010, published 2013)

Columns and labels:
Phytophthora infestans = format: in vivo; settings: 500 ppm of active ingredient; tomato, preventive; evaluated 7 days after inoculation; 100% = no disease
[1] = Measurement of logP values by HPLC on reversed phase columns (EEC directive 79/831 Annex V.A8); format: physicochemical; settings: HPLC; for Log P: pH 2.7, 0.1% formic acid in water / acetonitrile, single value; for Log P [I1] main isomer / Log P [I2] minor isomer: pH 2.7, 0.1% formic acid

Row | SMILES | efficacy (Phytophthora infestans) | Log P [1] | Log P [I1] main isomer [1] | Log P [I2] minor isomer [1]
1 | CCCCOC(C)C(=O)Nc1cccc(CON=C(c2ccccc2)c2nnsc2C)n1 (stereo not drawn) [Example 97] | 97% |  |  | 
2 | Cc1snnc1C(=NOCc1cccc(NC(=O)COCCC(C)C)n1)c1ccccc1 [Example 4] | 93% |  |  | 
3 | Cc1snnc1C(=NOCc1cccc(NC(=O)C(C)OCC2CC2)n1)c1ccccc1 (stereo not drawn) [Example 40] | 97% |  |  | 
4 | Cc1snnc1C(=NOCc1cccc(NC(=O)C(C)OCc2ccccc2)n1)c1ccccc1 (stereo not drawn) [Example 94] | 95% | 4.58 |  | 
5 | Cc1snnc1C(=NOCc1csc(NC(=O)COCCC2CCCC2)n1)c1ccccc1 [Example 77] | 95% | 4.91 |  | 
6 | Cc1snnc1C(=NOCc1csc(NC(=O)C(C)OCC2CCCCC2)n1)c1ccccc1 (stereo not drawn) [Example 73] | 100% | 5.35 |  | 
7 | CC(=O)OCC(=O)Nc1nc(CON=C(c2ccccc2)c2nnsc2C)cs1 (mixture of isomers) [Example 11] |  |  | 2.78 | 2.68
8 | Cc1snnc1C(=NOCc1csc(NC(=O)CSc2ccccc2)n1)c1ccccc1 (mixture of isomers) [Example 5] | 95% |  | 3.89 | 3.78
9 | Cc1snnc1C(=NOCc1csc(NC(=O)CSC2CCCC2)n1)c1ccccc1 [Example 106] | 92% | 4.14 |  | 
10 | Cc1snnc1C(=NOCc1csc(NC(=O)C(C)(C)Oc2ccccc2)n1)c1ccccc1 [Example 102] | 100% | 4.53 |  | 
11 | C#CCOC(CC)C(=O)Nc1nc(CON=C(c2ccccc2)c2nnsc2C)cs1 (stereo not drawn) [Example 104] | 98% | 3.61 |  | 
12 | C#CCOC(C)C(=O)Nc1cccc(CON=C(c2ccccc2)c2nnsc2C)n1 (stereo not drawn) [Example 14] | 100% | 3.58 |  | 
13 | Cc1snnc1C(=NOCc1cccc(NC(=O)COCC2CCC2)n1)c1ccccc1 [Example 54] | 97% | 4.54 |  | 
14 | Cc1snnc1C(=NOCc1cccc(NC(=O)COCCC2CCCCC2)n1)c1ccccc1 [Example 84] | 75% | 5.81 |  | 
15 | Cc1snnc1C(=NOCc1cccc(NC(=O)C(C)OCC2CCCC2)n1)c1ccccc1 (stereo not drawn) [Example 76] | 97% | 5.39 |  | 
16 | Cc1snnc1C(=NOCc1csc(NC(=O)C(C)OC2CCCCC2)n1)c1ccccc1 (stereo not drawn) [Example 55] | 98% | 4.76 |  | 
17 | Cc1snnc1C(=NOCc1cccc(NC(=O)COC2CCCCC2)n1)c1ccccc1 [Example 60] | 95% | 4.91 |  | 
18 | Cc1snnc1C(=NOCc1cccc(NC(=O)COc2ccc(I)cc2)n1)c1ccccc1 [Example 46] | 100% |  |  | 
19 | Cc1snnc1C(=NOCc1cccc(NC(=O)COC(C)C)n1)c1ccccc1 [Example 66] | 93% | 3.94 |  | 
20 | Cc1snnc1C(=NOCc1cccc(NC(=O)CSC2CCCCC2)n1)c1ccccc1 [Example 88] | 97% | 4.87 |  | 
21 | Cc1snnc1C(=NOCc1cccc(NC(=O)COc2ccccc2)n1)c1ccccc1 [Example 10] | 98% | 4.11 |  | 
22 | Cc1snnc1C(=NOCc1cccc(NC(=O)COCCC2CCCC2)n1)c1ccccc1 [Example 78] | 89% | 5.39 |  | 
23 | Cc1snnc1C(=NOCc1csc(NC(=O)COc2ccc(Cl)cc2)n1)c1ccccc1 [Example 34] | 100% | 4.19 |  | 
24 | Cc1snnc1C(=NOCc1cccc(NC(=O)C(C)OCC2CCC2)n1)c1ccccc1 (stereo not drawn) [Example 111] |  | 4.93 |  | 
25 | Cc1snnc1C(=NOCc1cccc(NC(=O)COc2cccc(Cl)c2)n1)c1ccccc1 (mixture of isomers) [Example 43] |  |  | 4.53 | 4.41
26 | Cc1snnc1C(=NOCc1cccc(NC(=O)CSC2CCCC2)n1)c1ccccc1 [Example 107] | 92% | 4.51 |  | 
27 | Cc1snnc1C(=NOCc1cccc(NC(=O)C(C)Oc2ccc(F)cc2)n1)c1ccccc1 (stereo not drawn) [Example 96] | 97% |  |  | 

Row | SMILES | efficacy (Phytophthora infestans) | Log P [1] | Log P [I1] main isomer [1] | Log P [I2] minor isomer [1]
28 | Cc1snnc1C(=NOCc1csc(NC(=O)COc2ccccc2Cl)n1)c1ccccc1 (mixture of isomers) [Example 31] | 95% |  | 4.19 | 4.06
29 | Cc1snnc1C(=NOCc1csc(NC(=O)COc2ccc(I)cc2)n1)c1ccccc1 [Example 45] | 100% | 4.44 |  | 
30 | Cc1snnc1C(=NOCc1csc(NC(=O)COCC2CCCC2)n1)c1ccccc1 [Example 108] | 100% | 4.53 |  | 
31 | Cc1snnc1C(=NOCc1csc(NC(=O)C(F)(F)Oc2ccccc2)n1)c1ccccc1 (mixture of isomers) [Example 1] | 100% |  | 4.25 | 4.15
32 | Cc1snnc1C(=NOCc1csc(NC(=O)CSC2CCCCC2)n1)c1ccccc1 [Example 87] | 97% | 4.46 |  | 
33 | CC(=O)OCC(=O)Nc1cccc(CON=C(c2ccccc2)c2nnsc2C)n1 (mixture of isomers) [Example 12] | 70% |  | 2.93 | 2.82
34 | Cc1snnc1C(=NOCc1csc(NC(=O)COCC2CC2)n1)c1ccccc1 [Example 17] | 97% | 3.53 |  | 
35 | Cc1snnc1C(=NOCc1cccc(NC(=O)COCC2CCCC2)n1)c1ccccc1 [Example 109] | 89% | 5.01 |  | 
36 | Cc1snnc1C(=NOCc1csc(NC(=O)CSCCC(C)C)n1)c1ccccc1 [Example 67] | 95% | 4.41 |  | 
37 | Cc1snnc1C(=NOCc1cccc(NC(=O)C(C)OCC(C)C)n1)c1ccccc1 (stereo not drawn) [Example 86] | 95% | 4.83 |  | 
38 | Cc1snnc1C(=NOCc1cccc(NC(=O)COCC2CCCCC2)n1)c1ccccc1 [Example 70] | 89% | 5.45 |  | 
39 | Cc1snnc1C(=NOCc1cccc(NC(=O)COc2ccccc2)n1)c1ccccc1 (mixture of isomers) [Example 9] | 95% |  | 4.14 | 4.01
40 | Cc1snnc1C(=NOCc1cccc(NC(=O)C(C)OC2CCCCC2)n1)c1ccccc1 (stereo not drawn) [Example 56] | 98% | 5.22 |  | 
41 | C#CCOC(C)C(=O)Nc1nc(CON=C(c2ccccc2)c2nnsc2C)cs1 (stereo not drawn) [Example 13] | 100% | 3.29 |  | 
42 | Cc1snnc1C(=NOCc1csc(NC(=O)CSCCc2ccccc2)n1)c1ccccc1 [Example 51] |  | 4.24 |  | 
43 | Cc1snnc1C(=NOCc1cccc(NC(=O)COCC2CCCCO2)n1)c1ccccc1 (stereo not drawn) [Example 72] | 75% | 3.92 |  | 
44 | CCOC(C)(C)C(=O)Nc1nc(CON=C(c2ccccc2)c2nnsc2C)cs1 [Example 61] | 100% | 3.94 |  | 
45 | C=CCCOC(C)C(=O)Nc1nc(CON=C(c2ccccc2)c2nnsc2C)cs1 (stereo not drawn) [Example 19] | 98% | 3.99 |  | 
46 | C=CCSCC(=O)Nc1cccc(CON=C(c2ccccc2)c2nnsc2C)n1 [Example 92] | 90% | 3.79 |  | 
47 | Cc1snnc1C(=NOCc1cccc(NC(=O)CSCCC(C)C)n1)c1ccccc1 [Example 68] | 95% |  |  | 
48 | Cc1snnc1C(=NOCc1cccc(NC(=O)COC2CCCC2)n1)c1ccccc1 [Example 24] | 95% | 4.51 |  | 
49 | C=CCSCC(=O)Nc1nc(CON=C(c2ccccc2)c2nnsc2C)cs1 [Example 91] | 95% | 3.52 |  | 
50 | Cc1snnc1C(=NOCc1csc(NC(=O)COCC2CCCCC2)n1)c1ccccc1 [Example 69] | 97% | 4.93 |  | 
51 | Cc1snnc1C(=NOCc1csc(NC(=O)C(C)OCC2CCC2)n1)c1ccccc1 (stereo not drawn) [Example 110] |  | 4.49 |  | 
52 | CCCCOCC(=O)Nc1cccc(CON=C(c2ccccc2)c2nnsc2C)n1 [Example 22] | 95% | 4.41 |  | 
53 | COc1ccccc1OCC(=O)Nc1cccc(CON=C(c2ccccc2)c2nnsc2C)n1 (mixture of isomers) [Example 58] | 95% |  | 4.24 | 4.11
54 | Cc1snnc1C(=NOCc1cccc(NC(=O)COc2ccc(Cl)cc2)n1)c1ccccc1 [Example 36] | 100% | 4.49 |  | 
